Results as given in US7205387B2, “Recombinant polypeptide useful for neurotrophin receptor mediated gene delivery and as neurotrophin agonist” (Agency for Science, Technology and Research, priority 2003, dated 2007).
Bridge positions count the residues as written; N and C are the ends. Ends that are not written are not given here.

Assays:
Erk1 and Erk2 = assay: Phospho-Erk1/Erk2 (p44/p42 MAPK) immunoblot in PC12 cells; assay type: cell-based, rat
Method: Immunoblotting experiments were conducted to test whether the chimeric polypeptides could, like NGF, induce autophosphorylation of TrkA and activation of its signal transduction pathways. PC12 cells were seeded in 6-well plates at a density of 2×10^6 cells/well and cultured in RPMI 1640 containing 0.5% FBS and 0.25% horse serum for 2 days. The low serum concentrations were necessary to reduce the basal levels of phosphorylation. The medium was refreshed two hours before beginning treatment. The cells were incubated with the polypeptides or NGF in serum-free medium for 15–20 min. The cells were then washed in PBS, lysed, and sonicated. The cell lysates were resolved by SDS-PAGE and transferred to a nitrocellulose membrane for immunoblotting. The primary antibodies used include Phospho-TrkA (Tyr490) antibody, Phospho-p44/p42 MAPK (Thr202/Tyr204) monoclonal antibody, and Phospho-Akt (Ser473) monoclonal antibody, all obtained from Cell Signaling Technology (Beverly, Mass., USA). Colorimetric detection was performed by standard techniques after using horse-radish peroxidase-conjugated secondary antibodies. In some experiments, TrkA tyrosine kinase inhibitors K-252a or AG879 (both from Calbiochem, La Jolla, Calif., USA) were used. In these cases, PC12 cells were incubated with 100 nM K-252a or 10 μM AG879 before addition of polypeptides or NGF.

primary cortical neurons = assay: Gene delivery to primary cultures of cortical neurons; assay type: cell-based, rat
Method: Primary cultures of neurons were established from the cortices of embryonic Wistar rats at gestational day 20. Cortices freed of meninges were dissected and individual cells were dispersed mechanically by trituration of minced tissue in 3 ml DMEM medium supplemented with 2% FBS. The suspension was allowed to settle in a centrifuge tube. The cells in the supernatant were collected by centrifugation and resuspended gently in DMEM with 10% FBS. Viability of the cells was assessed prior to plating using trypan blue. Cells were plated onto microplates pre-coated with poly-L-lysine/laminin at a density of 7.5×10^5 viable cells/cm^2. After a two-hour incubation period to allow neurons to attach, the medium and unattached cells were removed and replaced by serum-free DMEM/F12 medium with 1% N2 supplement (Invitrogen, Carlsbad, Calif., USA). The cell were then incubated at 37° C. in 5% CO2 in a humidified incubator. After 2–5 days of culture, the neuron cells were used for transfection experiments. Gene delivery complexes were also tested on primary cultures of cortical neurons and glial cells in a similar fashion. […] Four hours later, an equal volume of DMEM-F12/N2 was added. One to two days after transfection, the cell culture medium was removed and the cells were rinsed in phosphate-buffered saline (PBS). Enough Reporter Lysis Buffer (Promega, Wisconsin, Md., USA) to cover the bottom surface was added to each well (50 μl/well for 48-well plates). After one freeze-thaw cycle, the lysates were tested for luciferase activity using the Luciferase Assay System (Promega) and a single-tube luminometer (Berthold Lumat L B 9507, Bad Wildbad, Germany). The total protein concentration of each lysate was determined using the DC Protein assay (Bio-Rad, Hercules, Calif., USA). The results were expressed in relative light units (RLU) per milligram of total protein.

[1] = system: dorsal root ganglia (DRG); assay: Gene delivery in vivo, intrathecal injection, dorsal root ganglia; parameters: species or system rat; conditions: 3 days
Source text: In vivo gene delivery was studied by intrathecal injections of adult Wistar rats (8 weeks old, 180–200 g). The rats were anesthetized by intraperitoneal injection of sodium pentobarbital. After the skin around L4–L5 was exposed, the gene delivery complex was slowly injected into the subarachnoid space using a syringe. A slight tail movement accompanied correct placement of the needle. After injection, the syringe was left in place for five minutes to limit diffusion caused by backflow pressure. Multiple injections were sometimes required to deliver the full volume of the complex. After injection, the skin was closed with surgical clips and the animals were kept warm until they recovered. […] The lumbar segment of the spinal cord and the lumbar dorsal root ganglia were excised. The tissues were homogenized in 100–400 μl of Reporter Lysis Buffer (Promega) depending on size and subjected to three freeze-thaw cycles. The lysates were centrifuged at 14000 g for 5 min at 4° C. The supernatant was tested for luciferase activity using the Luciferase Assay System (Promega) in a single-tube luminometer (Berthold Lumat LB 9507). The readings were normalized by the total protein content of the lysates, as measured by the DC Protein assay (Bio-Rad).

[2] = system: PC12 (TrkA and p75^NTR positive) cells; assay: Gene delivery in vitro (pCAGluc luciferase reporter), PC12 cells; assay type: cell-based, rat
Method: A PC12 (rat pheochromocytoma) cell line was obtained from ATCC (American Type Culture Collection, Manassas, Va., USA) and cultured in RPMI-1640 medium supplemented with 10% fetal bovine serum (FBS) and 5% horse serum. PC12 cells are known to express TrkA and p75^NTR receptors. A COS7 (African green monkey kidney fibroblast) cell line was obtained from ATCC and cultured in Dulbecco's modified Eagle's medium (DMEM) supplemented with 10% fetal bovine serum, 50 U/ml penicillin, and 50 μg/ml streptomycin. The cells were maintained in a 37° C., 5% CO2, humidified incubator.
To determine the transfection efficiencies of our nucleic acid delivery systems, we employ a reporter plasmid, pCAGluc (a gift from Yoshiharu Matsuura, National Institute of Infectious Diseases, Tokyo, Japan), encoding firefly luciferase under the control of the composite promoter, CAG. CAG comprises the chicken β-actin promoter and the cytomegalovirus immediate early enhancer.
TrkA-targeting gene delivery complexes were tested for transfection efficiency in vitro in PC12 (TrkA and p75^NTR positive) cells and COS7 (neurotrophin receptor negative) cells. The cells were grown to 50–70% confluency in microplate wells (24-, 48-, or 96-well plates). The gene delivery complexes were prepared according to specifications presented for each example. Transfection was accomplished by replacing the serum-enriched medium with half the usual volume of reduced-serum medium, Opti-MEM (Invitrogen), containing the gene delivery complexes. Where specifically mentioned, 100 μM of chloroquine was also added to help the complexes escape from endosomes. After four hours of incubation, the cells were restored to the normal medium volume and serum concentration, either by topping up with medium containing twice the usual serum concentration (RPMI-1640 with 20% FBS and 10% horse serum for PC12) or by completely replacing the medium.
One to two days after transfection, the cell culture medium was removed and the cells were rinsed in phosphate-buffered saline (PBS). Enough Reporter Lysis Buffer (Promega, Wisconsin, Md., USA) to cover the bottom surface was added to each well (50 μl/well for 48-well plates). After one freeze-thaw cycle, the lysates were tested for luciferase activity using the Luciferase Assay System (Promega) and a single-tube luminometer (Berthold Lumat L B 9507, Bad Wildbad, Germany). The total protein concentration of each lysate was determined using the DC Protein assay (Bio-Rad, Hercules, Calif., USA). The results were expressed in relative light units (RLU) per milligram of total protein.

Molecule | activation (phosphorylation) of Erk 1 and Erk 2 (Erk1 and Erk2; 5 μM peptide, 20 min) | gene transfer efficiency relative to the non-targeted control (10K) (primary cortical neurons; peptide/DNA 0.75 nmol/μg (N/P ratio of 2.5), chloroquine) | luciferase gene expression in DRG relative to PEI600/pCAGluc/10K ([1]; 3 μg pCAGluc, PEI600 N/P 5, peptide N/P 5, intralumbar) | gene delivery at N/P ratio of 1 (in words) ([2]; 0.3 nmol peptide with 1 μg pCAGluc, 100 μM chloroquine) | transfection efficiency relative to a mixture of NL4 and 10K peptides ([2]; 1.5 nmol peptide per μg DNA (N/P ratio of 5), 100 μM chloroquine, 24 h) | dose-response of transfection efficiency with increasing amount of peptide ([2]; 1 μg pCAGluc/well, 100 μM chloroquine) | Erk1 and Erk2 activation compared with (SPKR)4 control (Erk1 and Erk2; 1–8 μM, 15 min) | effectiveness of triple complexes relative to (SPKR)4 triple complexes (primary cortical neurons; 0.25 μg/well pCAGluc, PEI600, 24 h) | transgene expression in lumbar DRG relative to PEI600/pCAGluc control ([1]; 4 μg pCAGluc, PEI600 N/P 5, 32 nmol peptide, intrathecal) | transfection efficiency of complexes of polypeptide and DNA alone ([2]; no polycation) | transgene expression relative to PEI600 alone ([2]; triple complexes with PEI600, highest amount of SPKR4NL1-2 tested) | transfection efficiency relative to PLL without SPKR4NL1-2 ([2]; triple complexes with poly-L-lysine (MW 1000), chloroquine, optimal amount of SPKR4NL1-2)
CTTTHTFVKALTMDGKQAAWRFIRIDTACKKKKKKKKKK (CTTTHTFVKALTMDGKQAAWRFIRIDTACKKKKKKKKKK; disulfide 1-29) [NL4-10K] | induced activation | 22 fold | twice as high | modest gene delivery | 110 times | increased markedly |  |  |  |  |  | 
SPKR4NL1-2: chimeric protein: (SPKR)4 DNA-binding domain, α-helical linker, targeting domain with loops 1 and 2 of NGF (aa 17–67), His10 tag (protein, SPKR4NL1-2) MGHHHHHHHHHHSSGHIEGRHMSPKRSPKRSPKRSPKRGGTYLSEDELKAAEAAFKRHNPTGSCSVSVWVGDKTTATDIKGKEVMVLGEVNINNSVFKQYFFETKCRDPNPVDSG |  |  |  |  |  |  | higher level of Erk1 and Erk2 activation | nine times | nine times | relatively weak transfection efficiencies | 5000 fold | 1000 times
